The values below come from patent US20150031892A1, “SPHINGOLIPID METABOLITE MIMETICS” (Zhejiang University, priority 2012, published 2015).

Holding throughout (type): cell-based
One assay concerns SA. Nature of the assay: MTT cytotoxicity assay, SA (pancreatic cancer as headed). As to the method:
(§1) Cell survival after exposure to the sphingolipid metabolite mimetics was examined by MTT cytotoxicity assay. HepG2, A431, HeLa, MCF-7 and SA cells (7000 cells/well) were seeded in each well of a 96-well plate for 24 h. New medium was added to give final concentrations of 0 to 200 μM of the sphingolipid metabolite mimetics. Then, 50 μl of 1 mg/ml 3-(4,5-dimethylthiazol-2-yl)-2,5-diphenyltetrazolium bromide (MTT, Sigma-Aldrich Chemical) was added to each well for 4 h incubation at 37° C. The purple formazan formed was then solubilized by DMSO and absorbance at 570 nm was read by a microplate reader (Molecular Devices, Sunnyvale, Calif.).

A further assay deals with HepG2. Briefly: MTT cytotoxicity assay, HepG2 (liver cancer). Particulars: Homo sapiens. As to the method: as §1
On the technique in general: Tetrazolium dyes change colour on reduction, which living cells bring about.

For another assay, the system named is SW480. Nature of the assay: MTT cytotoxicity assay, SW480 (colon cancer). Particulars: Homo sapiens.
For assay [1], the system named is multiple types of cancer cells. Nature of the assay: MTT cytotoxicity, statements over several cancer cell lines. Particulars: for direct anti-cancer cell activity: summary statement. The method, then: as §1
A further assay has as its system SiHa. Nature of the assay: MTT cytotoxicity assay, SiHa (ovarian cancer as headed). Conditions: Homo sapiens, Cervical Cancer SiHa.
In another assay the test system is A431. Nature of the assay: MTT cytotoxicity assay, A431 (squamous carcinoma). Conditions: Homo sapiens, A-431. As to the method:
as §1

Another assay relates to MCF-7. Nature of the assay: MTT cytotoxicity assay, MCF-7 (breast cancer). Particulars: Homo sapiens, MCF7; Breast Cancer MCF-7, MTT. As to the method: as §1
The next assay deals with SW620. Nature of the assay: MTT cytotoxicity assay, SW620 (colon cancer). Conditions: Homo sapiens, SW-620.

One may read the IC50 as the concentration that gives 50% inhibition. Consider `CCCCCCCCCCCCCCNC(=O)[C@@H](NS(=O)(=O)c1cccs1)[C@@H](C)O` [NZJU60, N-((2S,3R)-3-hydroxy-1-oxo-1-(tetradecylamino)butan-2-yl)-2-thiophene sulfonamide], for which the IC50 with SA was found to be 11.6 ± 2.2 µM; with HepG2, 21.6 ± 2.05 µM; in the assay on SW480, 11.8 ± 1.25 µM; in the assay on SiHa, 20.4 ± 2.47 µM; in the assay with A431, 22 ± 0.56 µM. Moreover, the “direct anti-cancer cell activity” value in assay [1] is on record as “direct anti-cancer cell activity”.

As to `CCCCCCCCCCCCCCCCCCNC(=O)[C@@H](NC(=O)/C=C/c1ccccc1)[C@@H](C)O` [NZJU26, (E)-N-((2S,3R)-3-hydroxy-1-oxo-1-(octadecylamino)butan-2-yl)-3-phenyl acrylic acid amide], the IC50 in the assay on SA is 47.1 ± 0.54 µM; in the assay with HepG2, 128 ± 9.04 µM; in the assay with SW480, 123 µM; with MCF-7, 39.2 ± 2.21 µM; with SW620 it was no less than 200 µM; in the assay with SiHa, 35.9 ± 2.64 µM. Moreover, the IC50 in the assay on A431 stood at 177 ± 7.17 µM. Besides, the “direct anti-cancer cell activity” value in assay [1] was “direct anti-cancer cell activity”.

For the molecule `CCCCCCCCCCCCCCNC(=O)[C@@H](NC(=O)/C=C/c1ccccc1)[C@@H](C)O` [NZJU25, (E)-N-((2S,3R)-3-hydroxy-1-oxo-1-(tetradecylamino)butan-2-yl)-3-phenyl acrylic acid amide], the half-inhibitory concentration (IC50) is 80.9 ± 1.9 µM in the assay on SA; 150 ± 4.37 µM in the assay with HepG2; 86.9 µM in the assay on SW480; 64.6 ± 4.54 µM in the assay with MCF-7; no less than 200 µM in the assay on SW620; 35.8 ± 0.68 µM in the assay with SiHa. This molecule also came in with an IC50 in the assay on A431 of 64.9 ± 4.87 µM.

Take `CCCCCCCCCCCCCCNC(=O)[C@@H](NC(=O)c1ccco1)[C@@H](C)O` [NZJU14, N-((2S,3R)-3-hydroxy-1-oxo-1-(tetradecylamino)butan-2-yl)-Furan-2-carboxamide]: the 50% inhibitory concentration (IC50) in the assay on SA is 148 ± 11.6 µM; with HepG2, greater than 400 µM; in the assay with SW480 it was 110 ± 5.03 µM; with MCF-7, 105 ± 5.03 µM; in the assay on SW620 it was no less than 200 µM; with SiHa, 127 ± 7.41 µM. Further, in the assay with A431, the IC50 is 190 ± 6.86 µM.

As to `C/C=C/C=C/C(=O)N[C@H](C(=O)NCCCCCCCCCCCCCCCCCC)C(C)O` (stereo in doubt) [NZJU12, (2E,4E)-N-((2S,3R)-3-hydroxy-1-oxo-1-(octadecylamino)butan-2-yl)-2,4-hexadienoic acid amide], the IC50 was greater than 200 µM with SA; 284 ± 8.3 µM in the assay on HepG2; 196 µM in the assay on SW480; 79.6 ± 2.34 µM in the assay on MCF-7; no less than 200 µM in the assay with SW620; greater than 200 µM with SiHa. This molecule also had a 50% inhibitory concentration (IC50) in the assay with A431 of 187 ± 2.41 µM.

`CCCCCCCCCCCCCCNC(=O)[C@@H](N)[C@@H](C)O` [NZJU46, (2S,3R)-2-Amino-3-hydroxy-N-tetradecylbutanamide]: the IC50 in the assay on SA turned out to be 11 ± 1.39 µM; with MCF-7 it was 10.7 ± 0.98 µM; in the assay with SW620, 18.7 ± 3.81 µM; in the assay with SiHa it was 11 ± 1.39 µM; in the assay with A431, 14.6 ± 0.76 µM. For the same molecule, the “direct anti-cancer cell activity” value in assay [1] was “direct anti-cancer cell activity”.

Take `CCCCCCCCNC(=O)[C@@H](NC(=O)c1ccccc1)[C@@H](C)O` [NZJU39, N-((2S,3R)-3-hydroxy-1-oxo-1-(octylamino)butan-2-yl)-benzamide]: the IC50 in the assay on SA is 34.6 ± 4.17 µM; in the assay on HepG2, 136 ± 5.92 µM; in the assay on SW480, greater than 200 µM; in the assay with MCF-7, 111 ± 4.66 µM; in the assay with SW620 it was no less than 200 µM; in the assay on SiHa it was 112 ± 2.43 µM. The same molecule displayed a 50% inhibitory concentration (IC50) in the assay on A431 of 61.3 ± 4.09 µM. The “direct anti-cancer cell activity” value in assay [1] is “direct anti-cancer cell activity”.

In the case of `C/C=C/C=C/C(=O)N[C@H](C(=O)NCCCCCCCCCCCC)[C@@H](C)O` [NZJU10, (2E,4E)-N-((2S,3R)-3-hydroxy-1-oxo-1-(dodecylamino)butan-2-yl)-2,4-hexadienoic acid amide], the IC50 with SA is 189 ± 12.2 µM; in the assay with HepG2, greater than 400 µM; in the assay on SW480, greater than 200 µM; in the assay on MCF-7, 37.1 ± 4.11 µM; in the assay on SW620, no less than 200 µM; with SiHa, greater than 200 µM. In the assay with A431, the IC50 worked out at 171 ± 12.1 µM.

As to `C/C=C/C=C/C(=O)N[C@H](C(=O)NCCCCCCCCCCCCCC)[C@@H](C)O` [NZJU11, (2E,4E)-N-((2S,3R)-3-hydroxy-1-oxo-1-(tetradecylamino)butan-2-yl)-2,4-hexadienoic acid amide], the concentration for half-maximal inhibition (IC50) in the assay with SA is 184 ± 1.9 µM; in the assay on HepG2 it was greater than 400 µM; in the assay on SW480 it was greater than 200 µM; in the assay with MCF-7, 27.76 ± 0.14 µM; in the assay with SW620, no less than 200 µM; with SiHa, greater than 200 µM. This molecule had a half-maximal inhibitory concentration (IC50) in the assay with A431 greater than 200 µM.

Take `CCCCCCCCCCCCCCNC(=O)[C@@H](NS(=O)(=O)c1ccc(C)cc1)[C@@H](C)O` [NZJU57, N-((2S,3R)-3-hydroxy-1-oxo-1-(tetradecylamino)butan-2-yl)-4-methylbenzsulfonamide]: the IC50 with SA stood at 10.9 ± 1.25 µM; in the assay with HepG2 it was 10.9 ± 0.54 µM; in the assay with SW480 it was 11.8 ± 1.38 µM; in the assay with SiHa, 19.2 ± 2.14 µM; with A431 it was 12 ± 1.87 µM. Besides, in assay [1], the “direct anti-cancer cell activity” value is listed as “direct anti-cancer cell activity”.

As for `CCCCCCCCCCCCCCCCCCNC(=O)[C@@H](NC(=O)c1cccs1)[C@@H](C)O` [NZJU35, N-((2S,3R)-3-hydroxy-1-oxo-1-(octadecylamino)butan-2-yl)-2-thiophene carboxamide], the IC50 in the assay with SA is 53.5 ± 5.32 µM; with HepG2 it was 92 ± 7.76 µM; in the assay on SW480, 89 µM; in the assay on MCF-7, 25.7 ± 0.47 µM; with SW620 it was no less than 200 µM; in the assay with SiHa, 117 ± 3.9 µM. Besides, the IC50 in the assay with A431 is 33.3 ± 3.32 µM.

Regarding `CCCCCCCCCCCCCCCCCCNC(=O)[C@@H](NC(=O)c1ccccc1)[C@@H](C)O` [NZJU18, N-((2S,3R)-3-hydroxy-1-oxo-1-(octadecylamino)butan-2-yl)-benzamide], the 50% inhibitory concentration (IC50) with SA was greater than 400 µM; with HepG2, greater than 400 µM; in the assay on SW480, 36.47 ± 0.23 µM; with MCF-7, 31.7 ± 6.55 µM; with SW620 it was no less than 200 µM; with SiHa, 38.2 ± 2.52 µM. Also, the half-inhibitory concentration (IC50) with A431 was determined as 113 ± 7.87 µM.

Take `CCCCCCCCNC(=O)[C@@H](NC(=O)/C=C/c1ccccc1)[C@@H](C)O` [NZJU42, (E)-N-((2S,3R)-3-hydroxy-1-oxo-1-(octylamino)butan-2-yl)-3-phenyl acrylic acid amide]: the IC50 in the assay on SA is 25.6 ± 4.41 µM; in the assay with HepG2 it was 55.6 ± 0.64 µM; in the assay on SW480 it was 62.7 µM; in the assay on MCF-7 it was 35.06 ± 0.2 µM; in the assay on SW620 it was 61.35 ± 0.27 µM; in the assay on SiHa, 41.4 ± 5.96 µM. 36 ± 3.36 µM corresponded to half-maximal inhibition in the assay with A431 (IC50).

In the case of `CCCCCCCCNC(=O)[C@@H](NC(=O)c1ccco1)[C@@H](C)O` [NZJU40, N-((2S,3R)-3-hydroxy-1-oxo-1-(octylamino)butan-2-yl)-Furan-2-carboxamide], the IC50 is 64.65 ± 0.5 µM in the assay on SA; 192 ± 11.1 µM in the assay with HepG2; 194 µM with SW480; 91.8 ± 4.21 µM in the assay with MCF-7; no less than 200 µM with SW620; 124 ± 8.78 µM in the assay on SiHa. Further, in the assay with A431, the IC50 stood at 64.5 ± 0.78 µM.

Regarding `CCCCCCCCCCCCNC(=O)[C@@H](NC(=O)c1cc2ccccc2[nH]1)[C@@H](C)O` [NZJU47, N-((2S,3R)-3-hydroxy-1-oxo-1-(dodecylamino)butan-2-yl)-indole-2-carboxamide], the IC50 is 12.3 ± 2.75 µM with SA; 12 ± 2.38 µM in the assay with HepG2; 10.2 ± 0.73 µM with SW480; less than 20 µM in assay [1] (multiple types of cancer cells, read-out: IC50); 21.25 ± 0.01 µM in the assay on SiHa; 10.3 ± 2.78 µM in the assay with A431. Further, the “direct anti-cancer cell activity” value in assay [1] is “direct anti-cancer cell activity”.

On to `CCCCCCCCCCCCCCCCCCNC(=O)[C@@H](NC(=O)c1nccc2ccccc12)[C@@H](C)O` [NZJU32, N-((2S,3R)-3-hydroxy-1-oxo-1-(octadecylamino)butan-2-yl)-isoquinoline-1-carboxamide], for which the concentration for half-maximal inhibition (IC50) with SA came to 49.1 ± 4.72 µM; with HepG2, 96.9 ± 6.77 µM; in the assay on SW480, 30.7 µM; with MCF-7 it was 30.8 ± 0.67 µM; in the assay on SW620 it was 136 ± 13.3 µM; in the assay on SiHa it was 51.2 ± 3.46 µM. The molecule further came in with a half-maximal inhibitory concentration (IC50) with A431 of 44.1 ± 2.02 µM.

For `CCCCCCCCCCCCCCNC(=O)[C@@H](NC(=O)c1ccccc1)[C@@H](C)O` [NZJU17, N-((2S,3R)-3-hydroxy-1-oxo-1-(tetradecylamino)butan-2-yl)-benzamide], the IC50 with SA is 56 ± 7.43 µM; in the assay on HepG2 it was 54.2 ± 3.95 µM; in the assay on SW480, no less than 200 µM; in the assay on MCF-7 it was 24.8 ± 6.75 µM; in the assay with SW620, no less than 200 µM; in the assay on SiHa, greater than 200 µM. Moreover, the concentration for half-maximal inhibition (IC50) in the assay on A431 came out at 118 ± 9.09 µM.

Regarding `CCCCCCCCCCCCCCNC(=O)[C@@H](NS(=O)(=O)c1ccc2ccccc2c1)[C@@H](C)O` [NZJU62, N-((2S,3R)-3-hydroxy-1-oxo-1-(tetradecylamino)butan-2-yl)-2-naphthylsulfonamide], the concentration for half-maximal inhibition (IC50) in the assay on SA is 10.2 ± 0.3 µM; in the assay with HepG2 it was 11.4 ± 1.11 µM; in the assay with SW480 it was 5.76 ± 1.02 µM; in the assay with SiHa, 11.1 ± 1.39 µM; with A431, 19.6 ± 2.16 µM. The “direct anti-cancer cell activity” value in assay [1] is given as “direct anti-cancer cell activity”.
